Measurements published in US20160280743A1, “BACTERIAL MUTANTS AND METHODS OF USE” (priority 2015, published 2016).
In brackets after ≈: the same amount, converted by molar mass. Read-outs that look alike come from different tables or passages of the source.

Columns and labels:
[1] = test system: P. aeruginosa PAO1, PAO1-Pore, Δ3, Δ3-Pore; test: Fold MIC change between P. aeruginosa strains (OM barrier, efflux); assay type: cell-based, Pseudomonas aeruginosa; details: for Fold MIC change, Efflux, PAO1-Pore/Δ3-Pore / Fold MIC change, Efflux, PAO1/Δ3 / Fold MIC change, OM barrier, PAO1/PAO1-Pore / Fold MIC change, OM barrier, Δ3/Δ3-Pore: P. aeruginosa
E. coli BW 25113 (WT) [2] = test: microbe, parasite or virus in culture; details: Escherichia coli
Experimental: (§1) Susceptibilities of E. coli and P. aeruginosa cells to different classes of antibiotics were determined by two-fold broth dilution method [1] with following modifications. Cells were grown in Luria-Bertani (LB) broth (tryptone 10 g/L, yeast extract 5 g/L and NaCl 5 g/L) with appropriate selection markers as needed, at 37° C. with shaking at 200 rpm. When needed, at OD600˜0.3, either L-arabinose (final concentration 0.1%) or IPTG (final concentration 0.1 mM) were added to induce the expression of the pore and cells were further incubated until OD600 reached 1.0. MICs of various antimicrobial agents were measured in 96-well micro-titer plates. For this purpose, exponentially growing cells were inoculated at a density of 10^5 cells/ml into wells containing LB medium in the presence of two-fold increasing concentrations of drugs under investigation at constant inducer concentration of 0.1% arabinose for E. coli or 0.1 mM IPTG for P. aeruginosa strains. Cell growth was determined visually or using Spark 10M microplate reader (Tecan) after incubation of the micro-titer plates at 37° C. for 16 h.
(§2) For this purpose, induced cells were dispensed into 96-well microplates with LB medium containing two-fold dilutions of an antibiotic of interest and a respective concentration of an inducer.

E. coli GD102 (ΔTolC) = details: for MIC GD102 (ΔTolC) —: E. coli ΔTolC without pore, 0.1% arabinose, LB, 37° C., 16 h
Experimental: as §1, §2

[3] = test system: E. coli WT-Pore (GKCW101, FhuAΔC/Δ4L pore); test: microbe, parasite or virus in culture; details: Escherichia coli
Experimental: as §1, §2

[4] = test system: P. aeruginosa PAO1Δ3 (Δ3); details: for MIC Δ3 —: P. aeruginosa Δ3 without pore, 0.1 mM IPTG, LB, 37° C., 16 h
Experimental: as §1, §2

[5] = test system: P. aeruginosa Δ3-Pore (GKCW116, FhuAΔC/Δ4L pore); test: MIC, two-fold broth dilution, P. aeruginosa Δ3-Pore; details: for MIC Δ3 Pore: P. aeruginosa Δ3-Pore, 0.1 mM IPTG, LB, 37° C., 16 h
Experimental: as §1, §2

[6] = test system: P. aeruginosa PAO1-Pore (GKCW115, FhuAΔC/Δ4L pore); test: MIC, two-fold broth dilution, P. aeruginosa PAO1-Pore; details: for MIC: Pseudomonas aeruginosa; for MIC PAO1 Pore: P. aeruginosa PAO1-Pore, 0.1 mM IPTG, LB, 37° C., 16 h
Experimental: as §1, §2

[7] = test system: E. coli WT, WT-Pore, ΔTolC, ΔTolC-Pore; assay type: cell-based, Escherichia coli; details: for Fold MIC change, Efflux, WT-Pore/ΔTolC-Pore / Fold MIC change, Efflux, WT/ΔTolC / Fold MIC change, OM barrier, WT/WT-Pore / Fold MIC change, OM barrier, ΔTolC/ΔTolC-Pore: E. coli
[8] = test system: E. coli ΔTolC-Pore (GKCW103, FhuAΔC/Δ4L pore); details: 0.1% arabinose, LB, 37° C., 16 h
Experimental: as §1, §2

E. coli BW 25113 (WT) [9] = details: E. coli WT without pore; 0.1% arabinose; LB, 37° C., 16 h
Experimental: as §1, §2

[10] = test system: E. coli WT-Pore (GKCW101, FhuAΔC/Δ4L pore); details: 0.1% arabinose, LB, 37° C., 16 h
Experimental: as §1, §2

P. aeruginosa PAO1 [11] = details: P. aeruginosa PAO1 without pore; 0.1 mM IPTG; LB, 37° C., 16 h
Experimental: as §1, §2

P. aeruginosa PAO1 [12] = test: microbe, parasite or virus in culture; details: Pseudomonas aeruginosa, PAO1, 16 h, read-out: MIC PAO1 —
Experimental: as §1, §2

[13] = 16 h, read-out: MIC BW 25113 (WT) —
[14] = 16 h, read-out: MIC BW 25113 (WT) Pore

Compound | MIC (E. coli BW 25113 (WT) [2]; [13]) [µg/mL] | MIC GD102 (ΔTolC) — (E. coli GD102 (ΔTolC)) [µg/mL] | MIC [3, 14] [µg/mL] | MIC Δ3 — [4] [µg/mL] | Fold MIC change, Efflux, PAO1-Pore/Δ3-Pore [1] [fold] | Fold MIC change, Efflux, PAO1/Δ3 [1] | Fold MIC change, OM barrier, PAO1/PAO1-Pore [1] | Fold MIC change, OM barrier, Δ3/Δ3-Pore [1] [fold] | MIC GD102 (ΔTolC) Pore [8] [µg/mL] | MIC BW 25113 (WT) — (E. coli BW 25113 (WT) [9]) [µg/mL] | MIC BW 25113 (WT) Pore [10] [µg/mL] | MIC Δ3 Pore [5] [µg/mL] | MIC PAO1 — (P. aeruginosa PAO1 [11]) [µg/mL] | MIC PAO1 Pore [6] [µg/mL] | Fold MIC change, Efflux, WT-Pore/ΔTolC-Pore [7] [fold] | Fold MIC change, Efflux, WT/ΔTolC [7] | Fold MIC change, OM barrier, WT/WT-Pore [7] | Fold MIC change, OM barrier, ΔTolC/ΔTolC-Pore [7] [fold] | MIC (P. aeruginosa PAO1 [12]) [µg/mL] | other results
CC[C@H]1OC(=O)[C@H](C)[C@@H](O[C@H]2C[C@@](C)(OC)[C@@H](O)[C@H](C)O2)[C@H](C)[C@@H](O[C@@H]2O[C@H](C)C[C@H](N(C)C)[C@H]2O)[C@](C)(O)C[C@@H](C)C(=O)[C@H](C)[C@@H](O)[C@]1(C)O [Erythromycin] | 64 | 4 (≈ 5.45 µM) | 4 | 16 (≈ 21.8 µM) |  |  |  |  |  |  |  |  |  |  |  |  |  |  |  | Change of MIC on inactivation of the three major efflux pumps (PAO1 vs Δ3) [1]: 8 fold; MIC (E. coli BW 25113 (WT) [2]; read-out: MIC in E. coli WT cells): 87 µM; MIC in E. coli ΔTolC cells (E. coli GD102 (ΔTolC); unchanged in the range of 0.001-0.5% arabinose (FIG. 4A)): 5.5 µM (≈ 4.04 µg/mL); MIC ([3]; read-out: MIC in E. coli WT-Pore cells): 1.4 µM; MIC in P. aeruginosa Δ3 cells ([4]; FIG. 5): 21.8 µM (≈ 16 µg/mL); MIC in P. aeruginosa Δ3-Pore cells ([5]; induced, plateau with increasing IPTG (FIG. 5)): 0.085 µM (≈ 0.0624 µg/mL); MIC ([6]; PAO1, read-out: MIC in P. aeruginosa PAO1-Pore cells): 1.4 µM; Additional decrease of MIC in permeabilized ΔTolC-Pore cells ([7]; FIG. 4A): 16 fold; Difference of MICs in E. coli WT and ΔTolC cells ([7]; FIG. 4A): 16 fold; Reduction of MIC by permeabilization of the outer membrane in WT-Pore E. coli ([7]; FIG. 4A): 64 fold; Total potentiation (WT to ΔTolC-Pore) ([7]; FIG. 4A): 512 fold
CCCCCCCCCCCCOS(=O)(=O)[O-].[Na+] [SDS] |  | 5 |  | 10000 | 64 | ≧2 fold | ≧2 fold | 64 | 5 | 10000 | 10000 | 156.3 | >10000 | 10000 | 2000 | 2000 fold | 1 fold | 1 |  | 
Gentamicin |  | 4 |  |  |  |  |  |  | 4 | 4 | 2 |  |  |  | 0.5 | 1 fold | 2 fold | 1 |  | 
CO[C@H]1/C=C/O[C@@]2(C)Oc3c(C)c(O)c4c(O)c(c(/C=N/N5CCN(C)CC5)c(O)c4c3C2=O)NC(=O)/C(C)=C\C=C\[C@H](C)[C@H](O)[C@@H](C)[C@@H](O)[C@@H](C)[C@H](OC(C)=O)[C@@H]1C [Rifampicin] | 4 | 4 (≈ 4.86 µM) | 0.25 | 16 (≈ 19.4 µM) |  |  |  |  | 0.25 (≈ 0.304 µM) |  |  | 0.5 (≈ 0.608 µM) |  |  |  |  |  |  | 16 (≈ 19.4 µM) | MIC ([6]; PAO1, 16 h, read-out: MIC PAO1 Pore): 0.5 µg/mL
Coumermycin |  | 8 |  | 16 | 1 | 1 fold | 16 fold | 16 | 0.5 | 8 | 2 | 1 | 16 | 1 | 4 | 1 fold | 4 fold | 16 |  | 
NCC[C@H](O)C(=O)N[C@@H]1C[C@H](N)[C@@H](O[C@H]2O[C@H](CN)[C@@H](O)[C@H](O)[C@H]2O)[C@H](O)[C@H]1O[C@H]1O[C@H](CO)[C@@H](O)[C@H](N)[C@H]1O [Amikacin] | 2 | 2 (≈ 3.42 µM) | 2 | 1 (≈ 1.71 µM) | 2 | 1 fold | 0.5 fold | 1 | 2 (≈ 3.42 µM) |  |  | 1 (≈ 1.71 µM) |  |  | 1 | 1 fold | 1 fold | 1 | 1 (≈ 1.71 µM) | 
Triclosan |  | 0.004 |  | 32 |  |  |  |  | 0.002 | 0.031 | 0.031 | 8 | >1024 | >1024 |  |  |  |  |  | 
CCn1cc(C(=O)O)c(=O)c2ccc(C)nc21 [Nalidixic acid] | 8 | 1 (≈ 4.31 µM) | 8 | 8 (≈ 34.4 µM) | 16 | 8 fold | 2 fold | 4 | 1 (≈ 4.31 µM) |  |  | 2 (≈ 8.61 µM) |  |  | 8 | 8 fold | 1 fold | 1 | 64 (≈ 276 µM) | 
O=C(N[C@H](CO)[C@H](O)c1ccc([N+](=O)[O-])cc1)C(Cl)Cl [Chloramphenicol] | 2 | 0.5 (≈ 1.55 µM) | 2 | 1 (≈ 3.09 µM) | 16 | 8 fold | 4 fold | 8 | 0.5 (≈ 1.55 µM) |  |  | 0.125 (≈ 0.387 µM) |  |  | 4 | 4 fold | 1 fold | 1 | 8 (≈ 24.8 µM) | 
Virginiamycin |  | 8 |  |  |  |  |  |  | 0.5 | >256 | 256 |  |  |  | 512 | ≧64 fold | ≧2 fold | 16 |  | 
CO[C@@H]1[C@@H](OC(N)=O)[C@@H](O)[C@H](Oc2ccc3c(O)c(NC(=O)c4ccc(O)c(CC=C(C)C)c4)c(=O)oc3c2C)OC1(C)C [Novobiocin] | 128 | 0.5 (≈ 0.816 µM) | 32 | 32 (≈ 52.2 µM) | 64 | 16 fold | 8 fold | 32 | 0.125 (≈ 0.204 µM) |  |  | 1 (≈ 1.63 µM) |  |  | 256 | 256 fold | 4 fold | 4 | 512 (≈ 836 µM) | 
Tobramycin |  |  |  | 0.5 | 2 | 4 fold | 2 fold | 1 |  |  |  | 0.5 | 2 | 1 |  |  |  |  |  | 
